This is an account of results in PubChem BioAssay AID2060910 (Molecular Pharmacology Branch, DTP, NCI, 2025).

The test system of the assay is 242566-281-R-J2-PDC complex spheroid viability. In words: Anticancer human tumor 242566-281-R-J2-PDC patient-derived pancreatic carcinoma cell line growth inhibition [RAS]. The note with it: for viability, T/C: stronger effect = lower value. The text has this:
RAS pathway inhibitors in Combinations in Complex Spheroids
A high-throughput screen of multi-cell type tumor spheroids was designed to identify active combinations of RAS pathway inhibitors and targeted small molecules. Complex spheroids include a stromal component modeled by human endothelial cells (HUVEC) and fibroblasts modeled by human mesenchymal stem cells (MSCs). The concentration ranges selected for each drug and investigational agent were based upon clinically achievable concentrations if the clinical Cmax of the agent was known.
Compounds. The drugs and investigational agents: abemaciclib (NSC768073), cobimetinib (NSC768068), divarasib (GDC6063, NSC841802), docetaxel (NSC628503), GDC-1971 (RLY-1971, NSC841576), gemcitabine (NSC613327), inavolisib (NSC800729), ipatasertib (NSC767898), KB-0742 (NSC834161), MRTX-1133 (NSC836407), osimertinib (NSC779217), RMC-4630 (NSC839698), RMC-6236 (NSC851965), RMC-6291 (NSC852671), Ro-3306 (NSC812927), sapanisertib (NSC764658), SN-38 (NSC673596), staurosporine (NSC755774), SY5609 (NSC837396), and tovorafenib (DAY101, NSC766906), were obtained from the National Cancer Institute (NCI) Developmental Therapeutics Program Chemical Repository. The FDA-approved anticancer drug set is available from the NCI Developmental Therapeutics Program. […] The stock solutions were prepared in dimethyl sulfoxide (DMSO, Sigma-Aldrich, St. Louis, MO, cat. D2650) at 800-fold the tested concentration and stored at -70 degrees C prior to their use. All drugs and investigational agents were tested over a range starting from a high concentration at or near the clinical Cmax and decreasing in half-log increments. If the clinical Cmax for an agent had not been determined, the highest concentration tested was 10 microM.
Cell Culture. All cells were maintained in an incubator at 37 degrees C and 5% CO2 with 95% humidity. The PDC lines were cultured according to standard operating procedures established by the NCI PDMR. All PDCs were thawed and cultured in Matrigel-coated flasks prepared with a working solution of 1X Ham's F-12 nutrient mix, without supplementation (Invitrogen, Waltham, MA, cat. 11765054), 100 U/mL penicillin-streptomycin (Invitrogen, cat. 15140122), and 2.5% Matrigel (Corning Inc., Corning, NY, cat. 354248) for the first three passages. The 362531-283-R-J2-PDC and 782815-120-R-J1-PDC lines were cultured in 6C/Colon 1B media, which includes advanced DMEM/F-12 (Thermo Fisher Scientific, cat. 12634028), 10 mM HEPES (Thermo Fisher Scientific, cat. 15630080), 1X GlutaMAX supplement (Thermo Fisher Scientific, cat. 35050061), 0.1 mg/mL primocin (InvivoGen, San Diego, CA, cat. ant-pm-2), 10% defined fetal bovine serum, heat inactivated (HyClone Laboratories Inc., Logan, UT, cat. SH30070.03HI), 50% L-WRN conditioned media (ATCC, cat. CRL-3276), 1.25 mM N-Acetyl-L-cysteine (Sigma-Aldrich, cat. A9165), 10 mM nicotinamide (Sigma-Aldrich, cat. N0636), 1X B-27 supplement (Thermo Fisher Scientific, cat. 17504044), 1X N-2 supplement (Thermo Fisher Scientific, cat. 17502048), 50 ng/mL human EGF (Thermo Fisher Scientific, cat. PHG0311), and 10 microM Y-27632 dihydrochloride (Tocris Bioscience, cat. 1254). The K12877-001-R-J1-PDC line was cultured in 6I media, which includes all 6C/Colon 1B media plus 10 ng/mL human FGF-10 (PeproTech, cat. 100-26), 1 ng/mL human FGF-2 (PeproTech, cat. 100-18B), 1 µM prostaglandin E2 (Tocris Bioscience, cat. 2296), […] hydrocortisone (Sigma-Aldrich, cat. H4001), and […] bovine insulin (Sigma-Aldrich, cat. I6634). The K86415-001-R-J1-PDC line was cultured in 6D media, which includes all 6C/Colon 1B media components minus the L-WRN conditioned media. The 485176-168-R4-J1-PDC was cultured in PANC media, which includes all 6C/Colon 1B media plus 100 ng/mL human FGF-10 (PeproTech, cat. 100-26), 500 nM SB-431542 (Selleckchem, cat. S1067), and 10 nM gastrin (Tocris Bioscience, cat. 3006). […]

Setting [1] is: compound alone, run of 07/09/2024.

Values joined by “and” are separate entries in the source; they are usually repeats but may differ in a detail not shown here. Equal values may be shown once. A value given as a limit tells only on which side of the number the result lay.
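Also: spheroids exposed to compound for 7 days before readout.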
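For viability, T/C in this document: 100% = DMSO vehicle control wells.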

On to `C#Cc1c(F)ccc2cc(O)cc(-c3ncc4c(N5CC6CCC(C5)N6)nc(OCC56CCCN5CC(F)C6)nc4c3F)c12` (stereo not given), for which the viability, T/C – broadly, the ratio of treated to control – is 84.1% [middle of 8 runs] (compound 0.0316 µM); 80.2% [middle of 8 runs] (compound 0.1 µM); 71.4% [middle of 8 runs] (compound 0.316 µM); 53.9% [middle of 8 runs] (compound 3.16 µM); 49.6% [middle of 8 runs] (compound 10 µM).
In the case of `C=CC(=O)N1CCN(c2nc(OCC3CCCN3C)nc3c(F)c(-c4nc(N)cc(C)c4C(F)(F)F)c(Cl)cc23)C(C)C1` (stereo not given), the viability, T/C by setting is: (compound 0.00316 µM) 102% [middle of 12 runs]; (compound 0.0316 µM) 99.2% [middle of 12 runs]; (compound 0.1 µM) 100% [middle of 12 runs]. Besides, the IC50 (commonly the concentration that inhibits the measured activity by half) is > 1000 nM (compound alone, run of 07/15/2024) and > 1000 nM (curve of compound).
With `C=CC(=O)Nc1cc(Nc2nccc(-c3cn(C)c4ccccc34)n2)c(OC)cc1N(C)CCN(C)C`, the viability, T/C is 105% [middle of 4 runs] (compound 0.00316 µM), 101% [middle of 4 runs] (compound 0.01 µM), 90.5% [middle of 4 runs] (compound 0.0316 µM) and 91.2% [middle of 4 runs] (compound 0.1 µM). Further, the half-inhibitory concentration (IC50) (curve of compound) was > 1000 nM.
Regarding `CC(=O)OC12COC1CC(O)C1(C)C(=O)C(O)C3=C(C)C(OC(=O)C(O)C(NC(=O)OC(C)(C)C)c4ccccc4)CC(O)(C(OC(=O)c4ccccc4)C21)C3(C)C` (stereo not given), the viability, T/C reads like this: (compound 0.0316 µM) 54.6% [middle of 4 runs]; (compound 0.316 µM) 47.6% [middle of 4 runs]; (compound 1 µM) 43.5% [middle of 4 runs]; (compound 3.16 µM) 51.3% [middle of 4 runs].
As to `CC(C)NCC(C(=O)N1CCN(c2ncnc3c2C(C)CC3O)CC1)c1ccc(Cl)cc1` (stereo not given), the viability, T/C was 104% [middle of 4 runs] (compound 0.0316 µM), 106% [middle of 4 runs] (compound 0.1 µM), 103% [middle of 4 runs] (compound 0.316 µM) and 101% [middle of 4 runs] (compound 1 µM). Also, under “curve of compound”, the IC50 is > 10000 nM.
For the compound `CC(C)n1nc(-c2ccc3oc(N)nc3c2)c2c(N)ncnc21`, the viability, T/C (compound 0.000316 µM) was 104% [middle of 4 runs]; the viability, T/C (compound 0.001 µM) is 102% [middle of 4 runs]; the viability, T/C (compound 0.01 µM) was 85.6% [middle of 4 runs]; the viability, T/C (compound 0.0316 µM) is 63.6% [middle of 4 runs]; the viability, T/C (compound 0.1 µM) is 60.3% [middle of 4 runs]. The IC50 (curve of compound) is 50.9 nM and > 100 nM and 52.5 nM.
On to `CC(Nc1ccc2c(c1)OCCn1cc(N3C(=O)OCC3C(F)F)nc1-2)C(N)=O` (stereo not given), for which the viability, T/C (compound 0.0316 µM) was 99.1% [middle of 4 runs]; the viability, T/C (compound 0.1 µM) is 99.7% [middle of 4 runs]; the viability, T/C (compound 1 µM) is 57.4% [middle of 4 runs]; the viability, T/C (compound 3.16 µM) is 37.6% [middle of 4 runs]; the viability, T/C (compound 10 µM) was 28.8% [middle of 4 runs]. For the setting “curve of compound”, the IC50 is 1.41 µM [middle of 4 runs].
As to `CC1(C)CCC(Nc2ncc(C(F)(F)F)c(-c3c[nH]c4c(P(C)(C)=O)c(C#N)ccc34)n2)CN1` (stereo not given), the viability, T/C (compound 0.03 µM) is 110% [middle of 4 runs]. Also, the IC50 (curve of compound) was > 300 nM.
On to `CCC(CC)c1cc(NC2CCC(N)C2)n2nccc2n1` (stereo not given), for which the viability, T/C by setting is: (compound 0.0316 µM) 105% [middle of 4 runs]; (compound 0.1 µM) 119% [middle of 4 runs]; (compound 0.316 µM) 105% [middle of 4 runs]; (compound 1 µM) 114% [middle of 4 runs]; (compound 10 µM) 2.75% [middle of 4 runs]. In addition, where the note is “curve of compound”, the 50% inhibitory concentration (IC50) was 4.51 µM [middle of 4 runs].
For the compound `CCN1CCN(Cc2ccc(Nc3ncc(F)c(-c4cc(F)c5nc(C)n(C(C)C)c5c4)n3)nc2)CC1`, the viability, T/C runs as follows: (compound 0.00316 µM) 102% [middle of 4 runs]; (compound 0.0316 µM) 102% [middle of 4 runs]; (compound 0.1 µM) 99.1% [middle of 4 runs]. For the same compound, the IC50 (curve of compound) was > 1000 nM.
Turning to `CCc1c2c(nc3ccc(O)cc13)-c1cc3c(c(=O)n1C2)COC(=O)[C@]3(O)CC`, the viability, T/C is 97% [middle of 4 runs] (compound 0.003 µM); 76% [middle of 4 runs] (compound 0.00949 µM); 49% [middle of 4 runs] (compound 0.03 µM); 24.7% [middle of 4 runs] (compound 0.0949 µM); 12.9% [middle of 4 runs] (compound 0.3 µM). The IC50 (curve of compound) is 30.9 nM [middle of 4 runs].
In the case of `CCn1c(-c2cc(N3CCN(C)CC3)cnc2C(C)OC)c2c3cc(ccc31)-c1csc(n1)CC(NC(=O)C1CC1C)C(=O)N1CCCC(N1)C(=O)OCC(C)(C)C2` (stereo not given), the viability, T/C runs as follows: (compound 0.000949 µM) 93.7% [middle of 8 runs]; (compound 0.003 µM) 76.4% [middle of 8 runs]; (compound 0.00949 µM) 49% [middle of 8 runs]; (compound 0.03 µM) 31.3% [middle of 8 runs]; (compound 0.0949 µM) 23.8% [middle of 8 runs]; (compound 0.3 µM) 21.6% [middle of 8 runs]. Moreover, under setting [1], the IC50 is 9.34 nM [middle of 8 runs].
Regarding `CCn1c(-c2cccnc2C(C)OC)c2c3cc(ccc31)N1CCOC(CC(NC(=O)C(C(C)C)N(C)C(=O)C3(F)CCN(C(=O)C#CC(C)(C)N(C)C)CC3)C(=O)N3CCCC(N3)C(=O)OCC(C)(C)C2)C1` (stereo not given), the viability, T/C (compound 0.000949 µM) was 93.4% [middle of 8 runs]; the viability, T/C (compound 0.003 µM) is 108% [middle of 8 runs]; the viability, T/C (compound 0.00949 µM) was 104% [middle of 8 runs]; the viability, T/C (compound 0.03 µM) was 109% [middle of 8 runs]; the viability, T/C (compound 0.0949 µM) was 98.3% [middle of 8 runs]; the viability, T/C (compound 0.3 µM) was 87.6% [middle of 8 runs]. Besides, the IC50 under setting [1] was > 300 nM.
Regarding `C[C@@H](NC(=O)c1ncnc(N)c1Cl)c1ncc(C(=O)Nc2cc(C(F)(F)F)c(Cl)cn2)s1`, the viability, T/C runs as follows: (compound 0.0316 µM) 116% [middle of 4 runs]; (compound 0.1 µM) 114% [middle of 4 runs]; (compound 0.316 µM) 110% [middle of 4 runs]; (compound 1 µM) 118% [middle of 4 runs]; (compound 3.16 µM) 106% [middle of 4 runs]. Also, under “curve of compound”, the IC50 is > 10000 nM.
Turning to `Cc1nc(N2CCC3(CC2)COC(C)C3N)c(CO)nc1Sc1ccnc(N)c1Cl` (stereo not given), the viability, T/C is 119% and 98.2% and 102% (2×) (compound 0.0316 µM); 94.2% [middle of 4 runs] (compound 0.316 µM); 85.4% [middle of 4 runs] (compound 1 µM). Moreover, where the note is “curve of compound”, the IC50 is > 10000 nM.
For the compound `Nc1ccn(C2OC(CO)C(O)C2(F)F)c(=O)n1` (stereo not given), the viability, T/C reads like this: (compound 0.00316 µM) 102% [middle of 4 runs]; (compound 0.01 µM) 103% [middle of 4 runs]; (compound 0.0316 µM) 74.9% [middle of 4 runs]; (compound 0.1 µM) 49.9% [middle of 4 runs]; (compound 0.316 µM) 23.4% [middle of 4 runs]; (compound 1 µM) 15.6% [middle of 4 runs]. Also, the IC50 (curve of compound) was 89.6 nM [middle of 4 runs].
